Drawing on PubChem BioAssay (NCI), this text covers TGI and GI50 for 28 molecules.

Holding throughout (assay): DTP human tumour cell line panel, 48 h
For assay [1], the system named is A549 NSCLC.
For assay [2], the system named is A498 renal.
In assay [3] the test system is HCT-116 colon.
Assay [4] has as its system NCI-H226 lung.
Assay [5] concerns SK-MEL-2 melanoma.
For assay [6], the system named is OVCAR-5 ovarian.
Assay [7] deals with MALME-3M melanoma.
For assay [8], the system named is OVCAR-3 ovarian.
In assay [9] the test system is SK-MEL-5 melanoma.
Assay [10] deals with MDA-MB-231 breast.

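Cells were grown in 96-well plates and exposed to each compound for 48 hours at five concentrations; endpoints were interpolated linearly between bracketing concentrations, or set to the highest concentration if not reached. At the GI50, growth is halved. TGI: concentration producing complete growth inhibition.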

For `NC(=O)c1ncn(C2OC(CO)C(O)C2O)c1O` (centres undefined), the total growth inhibition concentration (TGI) in [1], in assay [2], in [3], in [4], in assay [5] and in [6] was above 100 µM in each case. The TGI in [7] and in assay [8] was above 100 µM throughout.

For the molecule `Cc1[nH]c2cc([N+](=O)[O-])ccc2c1[N+](=O)[O-]`, the TGI in assay [9] came out at 27.6 µM; in assay [1], 69.6 µM; in assay [2] it was 50.4 µM; in assay [4], 71.8 µM; in assay [5] it was 31 µM; in assay [6], 79 µM. Besides, the results for the concentration for total growth inhibition (TGI) in assay [7] and in assay [8] were 54.4 µM and above 100 µM, respectively.

In the case of `CC1(C)C(=O)/C=C\C(=O)C(C)(C)C(=O)/C=C\C(=O)C(C)(C)C2=CC=C(O2)C(C)(C)C(=O)/C=C\C1=O`, the TGI in assay [9] stood at 21.2 µM; in assay [1], 49.7 µM; in [2] it was 30.9 µM; in assay [3] it was 5 µM; in assay [4] it was 18.1 µM; in assay [5], 25.5 µM. Besides, the TGI in assay [6] was 37.1 µM; in assay [7], 4.11 µM; in [8], 9.41 µM.

Turning to `Clc1ccc(-c2nc(NCc3ccco3)c3ccccc3n2)c(Cl)c1`, the GI50 is 13.9 µM in assay [9]; 20.1 µM in assay [1]; 22 µM in assay [2]; 16.3 µM in assay [3]; 20.7 µM in [4]; 36.8 µM in [5]. The GI50 in assay [6] is 40.1 µM; in [7] it was 12.9 µM; in assay [8], 11.6 µM. Further, the TGI in assay [9] is 30 µM; in [1], 49.1 µM; in assay [2], 41 µM; in assay [3] it was 45.8 µM; in [4], above 100 µM; in [5], above 100 µM. Moreover, the total growth inhibition concentration (TGI) in [6] is above 100 µM; in assay [7], 32.4 µM; in assay [8], 29.7 µM.

For the molecule `CN(C)N=Nc1ccc(S(N)(=O)=O)cc1`, the TGI in [9], in assay [1], in [2], in assay [3], in assay [4] and in [5] was above 100 µM throughout. In addition, the TGI in [6], in [7] and in assay [8] was above 100 µM throughout.

Regarding `N#CC(/C(CCCC(=O)Nc1cccc([N+](=O)[O-])c1)=N\NC(=O)c1c(O)ccc2ccccc12)c1nc2ccccc2s1` (centres undefined), the concentration for total growth inhibition (TGI) in [9] was 93.1 µM; in assay [1], above 100 µM; in [2], above 100 µM; in [3], above 100 µM; in [4] it was 72 µM; in [5], above 100 µM. Besides, the TGI in assay [6], in assay [7] and in assay [8] was above 100 µM each time.

In the case of `O=C(CCc1ccccc1)CC1OC(=O)C(Cl)=C1Cl` (centres undefined), the concentration for total growth inhibition (TGI) in [9] is 47 µM; in assay [1] it was above 100 µM; in assay [2], 66.2 µM; in assay [3], 28 µM; in assay [5] it was 36.1 µM; in [6], 35 µM. In addition, the total growth inhibition concentration (TGI) in [7] turned out to be 33.1 µM; in assay [8], 38.1 µM.

Turning to `CN1CCN(c2nc(N)c(Br)c(Cl)n2)CC1`, the TGI in [9], in assay [1], in assay [5], in assay [6], in assay [7] and in [8] was above 100 µM throughout.

For `COC(=O)[C@@]12C3=NO[C@]1(C(=O)OC)C(O[Si](C)(C)C(C)(C)C)[C@@H](OC(C)=O)[C@@H](OC(C)=O)[C@@H]2[C@@H](OCc1ccccc1)CC3` (some centres undefined), the TGI in [9], in [1], in [2], in [3], in assay [4] and in assay [5] was above 100 µM in each case. Further, the TGI in assay [6], in assay [7] and in assay [8] was above 100 µM in each case.

In the case of `O=C(C(=CN1CCN(C(=O)c2ccco2)C1=S)C(=O)c1ccccc1)c1ccccc1`, the GI50 in [9] is 10.9 µM; in assay [1], 11.3 µM; in [3], 7.93 µM; in assay [5], 12.1 µM; in assay [7], 3.05 µM; in assay [10] it was 7.41 µM. In addition, the GI50 in assay [8] was 7.32 µM. Besides, the total growth inhibition concentration (TGI) in assay [9] was found to be 19.5 µM; in [1] it was 29.1 µM; in assay [3] it was 17 µM; in [5] it was 25.6 µM; in [7], 43.3 µM; in assay [10] it was 20.1 µM. For the same molecule, the TGI in assay [8] turned out to be 23 µM.

Regarding `COc1ccc(C(=O)C(C(=O)C(=O)NCCCNC(=O)C(=O)C(C(=O)c2ccc(OC)cc2)c2ccc(OC)cc2)c2ccc(OC)cc2)cc1` (centres undefined), the TGI in assay [1], in assay [3], in assay [4], in assay [5], in [6] and in assay [7] was above 100 µM in each case. The same molecule showed a TGI in assay [8] above 100 µM.

Consider `CC1=C2C=CC(=O)C[C@@]2(C)CCC1`, for which the TGI in [9], in assay [1], in assay [2], in assay [3], in [5] and in assay [6] was above 100 µM in each case. Also, the TGI in assay [7] and in assay [8] was above 100 µM throughout.

In the case of `N#CC1=C(N)OC2=C(CCOc3c2ccc2ccccc32)C1c1ccc(Br)cc1` (centres undefined), the GI50 in [1] is 47.1 µM; in [3] it was 15.1 µM; in assay [6] it was 96.3 µM; in assay [7] it was 15.3 µM; in assay [8], 15.1 µM. Besides, the TGI in [1] is above 100 µM; in [3], 47.7 µM; in assay [6], above 100 µM; in assay [7], 57.7 µM; in assay [8] it was 39.4 µM.

`CCOC(=O)C1C(=O)CC(=O)C2CCCCC21` (centres undefined): the concentration for total growth inhibition (TGI) in assay [9], in assay [1], in [2], in assay [3], in assay [5] and in [6] was above 100 µM each time. Besides, the TGI in assay [7] and in [8] was above 100 µM in each case.

For the molecule `CC(=O)[CH-]C(=O)c1ccccc1.CC(=O)[CH-]C(=O)c1ccccc1.CC(=O)[CH-]C(=O)c1ccccc1.[Ga+3]`, the GI50 is 23.4 µM in assay [9]; 34.4 µM in [1]; 24.7 µM in assay [2]; 15.5 µM in [3]; 16.8 µM in assay [4]; 10.8 µM in [5]. The figures for the GI50 in assay [6], in assay [7] and in assay [8] were 26.5 µM, 2.61 µM and 20.4 µM, respectively. Further, the TGI in assay [9] is 65.6 µM; in [1], above 100 µM; in assay [2], 45.6 µM; in [3], 29.8 µM; in assay [4], 43.5 µM; in [5], 23.6 µM. Moreover, the total growth inhibition concentration (TGI) amounted to 66.8 µM in assay [6], 19.5 µM in assay [7] and 48.9 µM in assay [8].

For `O=C(N/C(=C\c1ccc(/C=C(\NC(=O)c2ccccc2)c2nc3c(O)nc(S)nc3[nH]2)cc1)c1nc2c(O)nc(S)nc2[nH]1)c1ccccc1`, the total growth inhibition concentration (TGI) in assay [9], in assay [1], in assay [2], in assay [3], in assay [5] and in [6] was above 100 µM throughout. The TGI in assay [7] and in [8] was above 100 µM in each case.

With `N#Cc1ccc(C2SCc3nc4ccccc4n32)cc1` (centres undefined), the TGI in assay [9], in assay [1], in assay [2], in assay [3], in assay [5] and in assay [7] was above 100 µM throughout. This molecule displayed a TGI in assay [8] above 100 µM.

Consider `CC(=O)C1C(=O)C(=O)N(CCN2C(=O)C(=O)C(C(C)=O)C2=O)C1=O` (centres undefined), for which the concentration for total growth inhibition (TGI) in assay [9], in assay [2], in assay [3], in assay [4], in [5] and in assay [6] was above 100 µM each time. Also, the concentration for total growth inhibition (TGI) in assay [7] and in assay [8] was above 100 µM each time.

For the molecule `CC(=O)CC(=O)Nc1ccccc1C(F)(F)F`, the concentration for total growth inhibition (TGI) in [9], in assay [1], in assay [2], in [3], in [4] and in assay [5] was above 100 µM throughout. Further, the TGI in assay [6] and in assay [7] was above 100 µM in each case.

With `CCN(CC)C(=S)SS(C)(=O)=O`, the TGI was determined as 49.4 µM in [9]; 43.1 µM in [3]; 31.3 µM in [4]; 33.2 µM in assay [5]; 42.2 µM in assay [6]; 58.4 µM in [7].

For `CSc1nnc(C(C#N)C#N)nn1`, the TGI in assay [9], in assay [1], in [2], in assay [3], in [4] and in [6] was above 100 µM in each case. The TGI in [7] and in [8] was above 100 µM throughout.

On to `COC1/C(=C\C(C)=O)c2ccccc2N1C(C)=O` (centres undefined), for which the concentration for total growth inhibition (TGI) in assay [1], in assay [2], in assay [3], in assay [5] and in [8] was above 100 µM throughout.

For the molecule `CCN(CC)c1ccc(C2N3CCCCC3[C@@H]3c4[nH]c5ccccc5c4CCN23)cc1` (some centres undefined), the TGI in assay [9] was 31.1 µM; in assay [1] it was above 100 µM; in [2] it was 28.2 µM; in assay [3], 33.9 µM; in assay [6], above 100 µM; in [7], 47.4 µM. In assay [8], this molecule came in with a TGI of 71.4 µM.

Regarding `CCOCCOCCOCCOCCOCCOCCOCCOCCOCCO` (tested in a mixture with another compound), the GI50 is 0.586 µM in assay [9]; 1.21 µM in [1]; 1.08 µM in assay [2]; 1.01 µM in assay [3]; 1.22 µM in [4]; 1.2 µM in assay [5]. Moreover, the GI50 is 3.65 µM in [7] and 0.476 µM in assay [8]. Moreover, the TGI in [9] stood at 1.81 µM; in [1], 8.66 µM; in assay [2] it was 19.1 µM; in assay [3] it was 4.68 µM; in assay [4], 12.5 µM; in assay [5] it was 3.81 µM. The TGI is 9.23 µM in assay [7] and 4.63 µM in assay [8].

Take `Cc1cc(Br)ccc1N=Nc1c(C)nn(-c2ccccc2)c1-c1ccccc1`: the TGI in assay [9], in assay [1], in [2], in assay [3], in [5] and in [6] was above 100 µM each time. The total growth inhibition concentration (TGI) in assay [7] and in [8] was above 100 µM throughout.

Turning to `Fc1ccc(Nc2nc(Nc3ccc(-c4nc5ccccc5[nH]4)cc3)c3cn[nH]c3n2)cc1`, the GI50 is 9.94 µM in assay [9]; 2.75 µM in assay [1]; 14.6 µM in [2]; 1.75 µM in assay [3]; 2.62 µM in assay [4]; 2.11 µM in assay [5]. Further, the values for the GI50 in assay [6], in assay [7] and in [8] were 2.66 µM, 1.72 µM and 1.94 µM, respectively. In addition, the TGI in [9] is 21.9 µM; in [1], 6.78 µM; in assay [2], 27.7 µM; in assay [3], 3.58 µM; in [4], 7.07 µM; in assay [5], 4.95 µM. In addition, the TGI came to 7.62 µM in assay [6], 3.51 µM in [7] and 4.42 µM in assay [8].

As to `COc1ccc(/C=C/c2ccnc3ccccc23)cc1OC`, the TGI was 28 µM in assay [9]; 31.2 µM in assay [1]; 23.6 µM in [2]; 25.1 µM in [3]; 48.5 µM in assay [4]; 39 µM in [5]. Moreover, the figures for the TGI in [6], in assay [7] and in assay [8] were 27.6 µM, 30.7 µM and 26.6 µM, respectively.

Regarding `COc1cc(O)c(C(=O)/C=C/c2ccc(OC)c(OCc3ccccc3)c2)c(OC)c1`, the total growth inhibition concentration (TGI) in assay [9], in assay [1], in [3], in assay [4], in assay [5] and in assay [6] was above 100 µM throughout. In [8], this molecule showed a TGI above 100 µM.
